Reference: patent publication US9238684B2, “SPANX-B polypeptides and their use” (The United States of America, as represented by the …, priority 2009, dated 2016)
“Also recorded” adds a separate entry of the source.

Tests used:
[1] = test system: murine anti-SPANX-B antibody; assay: ELISA on peptide-coated plates with murine anti-SPANX-B antibody; assay type: binding; settings: Ab from mice DNA immunized with SPANX-B-expressing plasmid; FIG. 1B
Protocol: FIGS. 1A-1F are digital images, a graph and a schematic diagram illustrating the specificity of antibody and expression of SPANX-B in human immortalized tumor cell lines. FIG. 1A is a digital image showing ANEA-I0117 antibody recognized SPANX-B expressed in mouse erythroleukemia RL5 cells. Western blotting results are shown with ANEA-I0117 anti-SPANX-B antibody on lysates of RL5 cells (2 μl, 5 μl and 10 μl, respectively) transiently transduced with plasmid expressing SPANX-B (SPANX-B). Control lysates were made from untransduced parental RL5 cells (Control). FIG. 1B is a graph showing murine anti-SPANX-B antibody, which was generated from mice DNA immunized with plasmid expressing SPANX-B, recognized unique SPANX-B-specific insert of SPANX-B (encoded in Pep-G1 and Pep-2 peptides), ELISA assay on plates coated with various peptides that are depicted in FIG. 1C. […] FIG. 1D is a digital image showing the expression of SPANX-B protein evaluated by Western blotting with ANEA-I0117 Ab (1:5000) in lysates of cell lines, such as HEK293 (HEK), Jurkat, CRL 7002, UACC1273, 938 Mel, CCRF-CEM (CEM), and normal human donor PBMC (upper panel). The blot was stripped and hybridized with anti-actin antibody (lower panel). FIGS. 1E and 1F are digital images obtained from an immunohistochemistry and immunofluorescent assay, respectively, of melanoma (UACC1273) and ovarian carcinoma (2008 and OVCAR3) cell lines. The cells were stained with ANEA-I0117 Ab (right and bottom panels in FIG. 1E and FIG. 1F, respectively); and control IgG (left and upper panels in FIG. 1E and FIG. 1F, respectively).
SPANX-B can be often found in the list of highly expressed genes in microarray study of human tumors, including hematological malignancies and breast cancer (see, for example, Minn et al., Nature 436(7050):518-24, 2005). To confirm this, expression was tested using two antibodies, a rabbit 3ANEA Ab and mouse SPANX-B Ab. […] The second SPANX-B Ab was produced from mice DNA immunized with SPANX-B-expressing plasmid. […] In contrast, it reacted with a second peptide Pep-2 that only represented unique for SPANX-B insert of Pep-G1 (FIGS. 1B and C).

[2] = test system: HEK293 cells; assay: CTL 51Cr release assay on HEK293 cells pulsed with Pep-2; assay type: cell-based, human; settings: FIGS. 6A-C
Protocol: (§1) CTL assay and HLA blocking experiments: Tumor cell lines (target cells, 2×10^6) were incubated in 200 μL of fetal bovine serum (FBS) with 200 μCi of Na2^51CrO4 (PerkinElmer, Billerica, Mass.) for 2 hours at 37° C. Cells were washed with RPMI three times and resuspended in cRPMI with 10% FBS at 1×10^5 cells/mL. CTL assay was performed in triplicate in 96-well round bottom plates with 1×10^4/well ^51Cr-labeled target cells. The target cells were co-cultured at indicated ratios with effector cells (peptide-specific CD8^+ T cells) for 6 hours. The specific ^51Cr-release is calculated using formula: ((test sample release−spontaneous release)/(maximum release−spontaneous release))×100). Maximum release is for the target cells alone lysed with 2% Triton X-100.

[3] = test system: SPANX-B; assay: DNA immunization of mice, serum ELISA on peptide-coated plates; assay type: in vivo; settings: plates coated with peptide 5 μg/ml; FIG. 7
Protocol: Mice were intradermally immunized twice with 25 μg plasmid DNA constructs including MIP-3α-SPANX-B. Sera were tested for SPANX-B antibodies by ELISA assay in 96-well plates coated with the indicated peptides (5 μg/ml). […] The other was near the N-terminus, encoded by Pep-G1 (SEQ ID NO: 14) and Pep-2 (SEQ ID NO: 2) and Pep-3 (SEQ ID NO: 3).

[4] = test system: UACC1273 melanoma cells; assay: CTL 6-hour 51Cr release assay on UACC1273; assay type: cell-based, human; settings: SPANX-B-expressing, HLA-A2-positive target; FIGS. 6A-C
Protocol: as §1

[5] = test system: SPANX-B-specific CD8^+ T cell lines; assay: IFNγ secretion (ELISA) by CD8+ T cell lines stimulated with antigen-pulsed autologous DCs; assay type: cell-based, human
[6] = test system: primary human melanoma cells; assay: CTL 51Cr release assay on primary human melanoma cells; assay type: cell-based
Protocol: as §1

[7] = test system: OVCAR3 cells; assay: CTL 51Cr release assay on OVCAR3; assay type: cell-based, human; settings: HLA-A2-positive, SPANX-B-negative target; FIG. 6D
Protocol: as §1

For EANEANKTM (Synthetic peptide Pep-2), the “recognition of peptide by mouse SPANX-B Ab (ELISA)” value [1] was “but not other region-specific peptides; also recorded: reacted with”, the “lysis of HLA-A2-expressing HEK293 cells pulsed with Pep-2 by CD8+ T cell lines generated to the antigen” value ([2]; HEK-A2, pulsed with 1 μg/ml Pep-2) was “lysed HLA-A2-expressing HEK293 cells that were pulsed with Pep-2” and the “lysis of HLA-A2-negative parental HEK293 cells by CD8+ T cell lines generated to the antigen” value ([2]; HEK) was “did not kill”. For the same sequence, the “B cell epitope recognized by sera of immunized mice (ELISA)” value [3] was “Immunodominant B cell epitopes”, the “lysis of UACC1273 melanoma cells by CD8+ T cell lines generated to the antigen” value [4] was “killed UACC1273 melanoma cells” and the “recognition of SPANX-B protein-pretreated DCs by CD8+ T cells generated with peptide-pulsed DCs” value [5] was “also recognized SPANX-B protein-pretreated DCs”. For the same sequence, the “IFNγ secretion by SPANX-B-specific CD8+ T cells on stimulation with pulsed DCs” value ([5]; irradiated autologous DCs, lines generated with SPANX-B protein, FIG. 5A) was “secreted IFNγ”, the “lysis of HLA-A2-expressing primary melanoma tumors by CD8+ lines generated to the antigen” value ([6]; Tc526, Tc624 and Tc2492) was “recognized and lysed” and the “lysis of HLA-A2-negative primary melanoma tumors by CD8+ lines generated to the antigen” value ([6]; Tc2547 and Tc938, FIG. 6E) was “not affected”. The “lysis of OVCAR3 cells by CD8+ T cells, with or without Pep-2 pulsing” value [7] was “could not lyse HLA-A2-positive OVCAR3 cells that did not express SPANX-B, unless pulsed with Pep-2”.
